Active and inactive are the calls of the source. The rule behind the calls is not given here.

For this test, the target named is Serine/threonine-protein kinase mTOR (Homo sapiens) (UniProt P42345). As to the kind of experiment: binders of mTOR FRB domain, biophysical, NMR (AID 1648). The conditions noted are these: NMR binding to FRB domain, chemical shift.
Chain of Serine/threonine-protein kinase mTOR (Homo sapiens) (P42345 2015-2114): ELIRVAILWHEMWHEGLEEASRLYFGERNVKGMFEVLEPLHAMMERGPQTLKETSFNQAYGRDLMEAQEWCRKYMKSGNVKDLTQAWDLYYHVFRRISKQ
Broadly, the Kd is the constant that tells how readily two partners part at equilibrium. Consider `CC(=O)O[C@H]1C[C@@H](OC(C)=O)C(C)(C)C2C[C@@H](OC(C)=O)[C@@]3(C)C4=CC(=O)O[C@@H](c5ccoc5)[C@]4(C)CCC3[C@]21C` (some centres not stated), for which the Kd was > 4 mM (inactive).
The result for `CSc1nc(C)cc(-n2ccc(=O)[nH]c2=O)n1` reads > 4 mM (inactive).
In the case of `Cc1c(C(=O)Nn2cnnc2)oc2ccccc12`, the Kd is > 4 mM (inactive).
Regarding `CC(=O)Nc1cc2c(cc1C(=O)C(C)C)OCCO2`, the Kd was > 4 mM (inactive).
The result for `CC1C[C@H]2CC(=O)[C@H]3CCCN4CCC[C@H]2[C@]34C1` (some centres not stated) reads > 4 mM (inactive).
`CSc1ccccc1NC(=O)c1cccnc1`: the Kd was > 4 mM (inactive).
The result for `Nn1cnn2c(SCc3ccccc3)nnc12` reads > 4 mM (inactive); that for `CC(=O)Nc1ccc(S(=O)(=O)N2CCN=C2C)cc1`, > 4 mM (inactive).
The result for `Cn1cnnc1Sc1ncnc(N)c1[N+](=O)[O-]` reads > 4 mM (inactive); that for `OCc1ccc(-n2ccnc2)cc1`, > 4 mM (inactive); that for `Cc1cc(C)nc(/N=C(/N)N2CCOCC2)n1`, > 4 mM (inactive).
`C[C@@H]1CC[C@]2(C(=O)O)CC[C@]3(C)C(=CCC4[C@@]5(C)CC[C@H](O)C(C)(C)C5CC[C@]43C)C2[C@H]1C` (some centres not stated): the Kd is > 4 mM (inactive).
The result for `O=C1C2=C(SCCS2)C(=O)N1CCCO` reads > 4 mM (inactive).
As for `O=C(Nc1ccccc1)Nc1ccccn1`, the Kd is > 4 mM (inactive).
The result for `Cc1cc(=O)n(CC(C)C)c(O)c1C#N` reads > 4 mM (inactive).
As to `OC1CCC(C(F)(F)F)CC1` (configuration not stated), the Kd was > 4 mM (inactive).
The result for `COc1cc(OC)c2c(=O)c(O)c(-c3ccc(OC)c(OC)c3)oc2c1` reads > 4 mM (inactive).
The result for `COC(=O)CC1SC(=O)NC1=O` (configuration not stated) reads > 4 mM (inactive); that for `Cc1nn(-c2ccccc2)c(Cl)c1C(N)=O`, > 4 mM (inactive); that for `OCC(O)C(O)C(O)CO` (configuration not stated), > 4 mM (inactive).
As for `CSc1nc(NC(C)C)nc(N2CCOCC2)n1`, the Kd was > 4 mM (inactive).
`Cn1c(=O)c2c([nH]c(=O)n2C)n(C)c1=O`: the Kd is > 4 mM (inactive).
As to `Cn1c(CO)nc2cc(N)ccc21`, the Kd was > 4 mM (inactive).
The result for `Cc1cc(C(=O)N2CCN(c3ccccn3)CC2)c(C)o1` reads > 4 mM (inactive); that for `O=S1(=O)CCC(NC(=S)N2CCOCC2)C1` (configuration not stated), > 4 mM (inactive).
The result for `O=C1NCC(=O)N2CCc3ccccc3C12` (configuration not stated) reads > 4 mM (inactive).
Take `N#Cc1cn(CC(=O)N2CCCC2)c2ccccc12`: the Kd was > 4 mM (inactive).
Regarding `O=C(CCc1n[nH]c(=O)[nH]c1=O)NCc1ccccc1`, the Kd was > 4 mM (inactive).
The result for `CN1C(=O)c2ccc(C(=O)NC3CCCCC3)cc2C1=O` reads > 4 mM (inactive).
The result for `O=C(c1cc(Cl)cc(Cl)c1)N1CCOCC1` reads > 4 mM (inactive); that for `COC(=O)c1ccc2nc[nH]c2c1`, > 4 mM (inactive).
On to `Brc1ccc(-c2nc(-c3ccncc3)no2)o1`, for which the Kd is > 4 mM (inactive).
The result for `CNC(=S)Nc1ncn(Cc2cccc(F)c2)n1` reads > 4 mM (inactive).
The result for `Cc1ncc(C(=O)O)c(-c2ccccc2)n1` reads > 4 mM (inactive); that for `O=C1CCCN1C(=O)c1ccc(F)cc1`, > 4 mM (inactive); that for `Nc1nnc(C(F)(F)F)s1`, > 4 mM (inactive).
The result for `CC(=O)N1CC2(C)CN(C(C)=O)CC(C)(C1)C2O` (configuration not stated) reads > 4 mM (inactive); that for `CC12CN([N+](=O)[O-])C3(C(N)=O)CC1CCC23C` (configuration not stated), > 4 mM (inactive); that for `O=c1c(Cl)c(NCCO)ncn1-c1ccccc1`, > 4 mM (inactive).
As for `COc1ccc(-c2coc3c(OC)c(OC)cc(O)c3c2=O)cc1`, the Kd is > 4 mM (inactive).
The result for `O=C(O)CCC(=O)Nc1nccs1` reads > 4 mM (inactive); that for `CN(C)S(=O)(=O)Nc1ccc(Br)cc1F`, > 4 mM (inactive).
Consider `COc1ccc2[nH]cc(CCNC(C)=O)c2c1`, for which the Kd was > 4 mM (inactive).
Consider `O=C1CSC2=NCCCN12`, for which the Kd is > 4 mM (inactive).
The result for `NC(=O)c1ccc(NC(=O)c2ccco2)cc1` reads > 4 mM (inactive).
The result for `COc1ccc(C)cc1-n1c(-c2ccncc2)n[nH]c1=S` reads > 4 mM (inactive); that for `Nc1ccc(OCc2ccccc2)cc1`, > 4 mM (inactive); that for `O=C(NCCCO)c1ccncc1`, > 4 mM (inactive).
The result for `C=C(C)[C@@H]1[C@H]2OC(=O)[C@@H]1[C@]1(O)C[C@H]3O[C@]34C(=O)O[C@H]2[C@]14C` reads > 4 mM (inactive).
With `O=c1[nH]c(CN2CCN(CCO)CC2)nc2ccccc12`, the Kd is > 4 mM (inactive).
The result for `O=c1[nH]cc(Nc2ccccc2)c(=O)[nH]1` reads > 4 mM (inactive); that for `Cn1c([O-])c([N+](C)(C)C)c(=O)n(C)c1=O`, > 4 mM (inactive); that for `Cn1ncc(N2CCOCC2)c(Cl)c1=O`, > 4 mM (inactive).
The result for `O=C(O)C1CSC2(CCCCC2)N1` (configuration not stated) reads > 4 mM (inactive); that for `COc1cnn(-c2ccccc2)c(=O)c1N(C)C`, > 4 mM (inactive).
The result for `COc1cccc(Oc2ccc(N)cn2)c1` reads > 4 mM (inactive); that for `CC(C)n1c(-c2ccncc2)n[nH]c1=S`, > 4 mM (inactive); that for `O=C1NC(=S)NC(=O)C1=Cc1ccccc1O`, > 4 mM (inactive).
As for `Cc1cc(=O)[nH]c(NCC(=O)O)n1`, the Kd was > 4 mM (inactive).
Turning to `Nc1nc(=S)n2c(n1)oc1ccccc12`, the Kd was > 4 mM (inactive).
The result for `O=C(O)c1ccc2[nH]c3c(c2c1)CSCC3` reads > 4 mM (inactive); that for `O=C(O)C1CNc2ccccc2O1` (configuration not stated), > 4 mM (inactive).
Regarding `O=C(/C=C/c1ccc(O)c(O)c1)O[C@@H]1C[C@](O)(C(=O)O)C[C@@H](O)[C@H]1O`, the Kd is > 4 mM (inactive).
The result for `O=C1CS/C(=N/N=C2CCCC2)N1` reads > 4 mM (inactive); that for `CC(=O)Nc1cc(N2C(=O)C=CC2=O)ccc1Cl`, > 4 mM (inactive).
The result for `Cc1cc2ncc(C(=O)Nc3ccccc3)c(C)n2n1` reads > 4 mM (inactive); that for `NC(=O)Cc1nc(-c2ccccc2)cs1`, > 4 mM (inactive); that for `c1ccc(Cn2c(Nn3cnnc3)nc3ccccc32)cc1`, > 4 mM (inactive).
For `CCOC(=O)C1CCN(Cc2ccccc2)CC1`, the Kd was > 4 mM (inactive).
Turning to `Cc1nc2c(=O)[nH]c3ccccc3c2o1`, the Kd is > 4 mM (inactive).
The result for `O=c1ccc2ccccc2o1` reads > 4 mM (inactive); that for `CCOC(=O)c1snnc1-c1ccccc1`, > 4 mM (inactive).
The result for `CCC(=O)NC(=S)Nc1ccc(C(N)=O)cc1` reads > 4 mM (inactive).
The result for `O=C(CSc1ncn[nH]1)c1ccccc1` reads > 4 mM (inactive).
As to `COc1ccc(C[C@H]2NC[C@H](O)[C@H]2OC(C)=O)cc1`, the Kd was > 4 mM (inactive).
The result for `CSc1nc(=O)[nH]c2c1CCC2` reads > 4 mM (inactive).
With `OCc1ccccc1N1CCOCC1`, the Kd was > 4 mM (inactive).
On to `O=C1CCC(=O)N1CN1CCOCC1`, for which the Kd is > 4 mM (inactive).
The result for `COc1ccc(N2C(=N)C(C)(C)NC2=O)cc1` reads > 4 mM (inactive); that for `O=CN1CCN(C(=O)c2ccc(F)cc2)CC1`, > 4 mM (inactive).
As to `CC1CCC2(OC1)OC1CC3C4CCC5C[C@@H](O)CCC5(C)C4=CCC3(C)C1[C@@H]2C` (some centres not stated), the Kd is > 4 mM (inactive).
The result for `Cc1nc2nc(Cc3ccccc3)nn2c(C)c1Cl` reads > 4 mM (inactive).
The result for `CC(=O)NC(C)(C)C1CC=C(C)/C(=N\O)C1` (configuration not stated) reads > 4 mM (inactive).
The result for `CCN1CCc2c(sc(N)c2C(N)=O)C1` reads > 4 mM (inactive).
With `O=C(Cc1c(F)cccc1Cl)Nc1ccncc1`, the Kd is > 4 mM (inactive).
The result for `COc1cccc(O)c1O` reads > 4 mM (inactive); that for `Cc1cccc(C)c1NC(=O)CN1CCOCC1`, > 4 mM (inactive).
The result for `O=C(OC[C@H]1O[C@H](OC(=O)c2cc(O)c(O)c(OC(=O)c3cc(O)c(O)c(O)c3)c2)[C@H](OC(=O)c2cc(O)c(O)c(OC(=O)c3cc(O)c(O)c(O)c3)c2)[C@@H](OC(=O)c2cc(O)c(O)c(OC(=O)c3cc(O)c(O)c(O)c3)c2)[C@@H]1OC(=O)c1cc(O)c(O)c(OC(=O)c2cc(O)c(O)c(O)c2)c1)c1cc(O)c(O)c(OC(=O)c2cc(O)c(O)c(O)c2)c1` reads > 4 mM (inactive).
The result for `O=C(NCO)c1ccccc1Cl` reads > 4 mM (inactive); that for `COc1ccccc1-c1noc(-c2ccncc2)n1`, > 4 mM (inactive).
As for `O=C(CS(=O)(=O)c1ccccc1)Nc1nccs1`, the Kd is > 4 mM (inactive).
The result for `O=C(O)C1CSC(c2cccnc2)N1` (configuration not stated) reads > 4 mM (inactive); that for `COc1ccccc1NC(=O)C1CCC(=O)N1` (configuration not stated), > 4 mM (inactive).
The result for `Cc1nc(-c2cccc(C(=O)O)c2)cs1` reads > 4 mM (inactive); that for `COc1ccc(S(=O)(=O)N2CCOCC2)cc1C(C)C`, > 4 mM (inactive).
The result for `C=C[C@H]1CN2CC[C@H]1C[C@@H]2[C@@H](O)c1ccnc2ccc(OC)cc12` reads > 4 mM (inactive); that for `Cc1ccc2nc(SCCC#N)nc(C)c2c1`, > 4 mM (inactive).
As to `COc1cccc(C(=O)Nc2c(C)n[nH]c2C)c1`, the Kd is > 4 mM (inactive).
The result for `Nc1nc(SCc2ccccc2)ns1` reads > 4 mM (inactive); that for `c1ccc2c(c1)CN1CCCC1=N2`, > 4 mM (inactive).
Take `Cc1cc(/C=N/O)nc(=O)[nH]1`: the Kd is > 4 mM (inactive).
The result for `CN(C)Cc1nc2c([nH]1)c(=O)[nH]c(=O)n2C` reads > 4 mM (inactive).
